From patent publication US10533018B2, “Antimicrobial prochelators to target drug-resistant bacteria and methods of making and using the same” (Duke University, priority 2015, dated 2020)
Like-named read-outs stand apart in the source and are kept apart here. Blank lines part the entries; values can stand above or below the compound they belong to.

Key:
[1] = tested on: clinical isolates of Klebsiella pneumonia (Klebs); test: Broth microdilution in Klebs clinical isolates; type: cell-based; settings: Klebsiella pneumoniae, LB broth, read-out: IC50
From the text: (§1) Bacterial culture reagents including LB broth (Lennox), agar-agar, ampicillin, and ceftriaxone were purchased from Sigma Aldrich Corp. The Escherichia coli (E. coli) K12 strain HB101 and pGLO E. coli transformation kit purchased from Bio-Rad Laboratories Inc. HB101 was transformed with the bla gene via the pGLO plasmid. The bla gene encodes for a TEM-1 β-lactamase that imparts penicillin resistance to the mutant E. coli K-12 strain (+Bla). Strains E. coli UTI89, [27] pCOM-GFP-transformed E. coli UTI89 (pCOM-GFP), [28] and Methicillin-Resistant Staphylococcus aureus (MRSA) clone USA300 [29] have been previously described. The Extended-Spectrum β-Lactamase (ESBL) E. coli, Klebsiella pneumonia (Klebs), and Pseudomonas aeruginosa (Pseudo) strains were clinical isolates acquired deidentified from Duke Hospital and tested for antibiotic susceptibility in the Clinical Microbiology Laboratory using standard clinical susceptibility methods.
(§2) Cultures were incubated on LB (Lennox, Sigma) agar at 37° C. in ambient atmospheric composition. Before beginning an experiment, a single bacterial colony grown on LB agar was resuspended in 2 mL LB broth and incubated overnight to form a turbid cell suspension. The overnight culture was diluted 1:100 in LB and used immediately as the working culture. To assess the antibacterial activity of compounds, the working bacterial culture was aliquoted in a clear, flat-bottomed, 96-well polystyrene plate (Costar) and the compound of interest was added in 2-fold serial dilution from 500 to 1 μM. Plates were covered with a breathable sealing film (Aeroseal, Genesee Scientific) and incubated at 37° C. in ambient atmospheric composition with shaking at 200 rpm. Optical density at 600 nm was recorded after 4 h and 20 h for each well using a standard OD600 protocol with LB serving as the blank. The resulting dose-response curves were fit to a nonlinear regression in GraphPad Prism Version 6 to calculate the IC50 of DB4-51 in each strain.

[2] = tested on: susceptible E. coli HB101 K-12 (no β-lactamase); test: Broth microdilution (preliminary, Table 1), susceptible K-12; type: cell-based, Escherichia coli; settings: Escherichia coli; Susceptable K-12 E. coli; LB; OD600; preliminary results
Experimental: (§3) In order to determine the antibiotic activity of DB4-51, a debilitated strain of Escherichia coli (HB101 K-12) was transformed with the pGLO plasmid from Bio-Rad in order to express β-lactamase. This transformation was confirmed by growing on a selective medium containing 100 μg/ml ampicillin in Lennox LB with 1.5% agar. A broth microdilution assay was employed to determine the relative activity of DB4-51 against susceptible (HB 101 K-12, no β-lactamase) and resistant (HB 101 K-12 transformed to express β-lactamase) E. coli. Using Lennox LB as the medium. serial dilutions of the test compounds were performed in a 96-well plate and then inoculated with E. coli before incubating for 16-20 hours at 35° C. The bacterial growth was monitored by recording each well's absorbance at 600 nm (OD600.) The OD600 values of E. coli suspensions incubated with various compounds were compared in order to assess their activities.
(§4) FIG. 7: OD600 of susceptible and resistant K-12 E. coli cultures against DB4-51 and known antibiotics as a function of concentration. Ampicillin has a penicillin core and cephalexin has a cephalosporin core. Cultures were grown in LB broth at 37° C. while shaking at 200 rpm for 18 hours and then diluted to an OD600 of 0.005 before adding the compounds. Plates were grown at 35° C. while shaking at 200 rpm and the OD600 was recorded after 18 hours.
(§5) Table 1: Calculated IC50 values for DB4-51, cephalexin, ampicillin, and pyrithione. These values were derived by fitting the data to a log dose-response curve and reporting the concentration corresponding to half the maximum OD600 value for each compound.

[3] = tested on: resistant E. coli HB101 K-12 transformed to express β-lactamase; test: microbe, parasite or virus in culture; type: cell-based, Escherichia coli; settings: Escherichia coli
Experimental: as §3, with “Using Lennox LB as the medium. serial dilutions of the test compounds were performed in a 96-well plate and then inoculated with E. coli before incubating for 16-20 hours at 35° C.” left out
as §4, with “Plates were grown at 35° C. while shaking at 200 rpm and the OD600 was recorded after 18 hours.” left out
as §5

−Bla K-12 E. coli = test: microbe, parasite or virus in culture; type: cell-based, Escherichia coli; settings: for IC50: Escherichia coli, −Bla K-12 E. coli, read-out: IC50
From the text: as §1, §2
(§6) The ability of DB4-162 to inhibit bacterial growth was assessed by a traditional broth microdilution method that assesses the turbidity of liquid cultures in the presence of varying concentrations of the compound. As described above for DB4-51, the antibacterial properties of the prochelator DB4-162 were assessed in non-pathogenic lab-strain HB101K-12 E. coli and compared to the pGLO-transfected mutant HB101K-12 E. coli that express β-lactamase. Clinically relevant pathogenic bacteria were also screened, including UTI89 E. coli, pCOM transfected UTI89 E. coli (pCOM), extended spectrum β-lactamase (ESBL) E. coli, methicillin-resistant Staphylococcus aureus (MRSA), and Klebsiella pneumonia (Klebs). In addition to being naturally resistant to many β-lactam antibiotics, MRSA can produce a number of β-lactamases. […] It should be noted that all of the bacteria tested are gram-negative except for gram-positive MRSA.
(§7) The goal of this screen was to calculate the IC50 of the prochelator in a series of pathogenic bacteria and compare these values to the IC50 of known antibiotics in those same strains to determine the relative effectiveness of DB4-162 against the drug-resistant and drug-susceptible bacteria in comparison to current antibiotic treatment options. Bacterial growth was monitored in LB broth at 37° C. in the presence and absence of DB4-162 for 20 hours. A concentration gradient of DB4-162 from 500 to 0 μM was used to screen all 7 strains of bacteria and the dose-response curves were fit to a […] to calculate the IC50 of DB4-162 in each strain. These IC50 values are an approximation of how effectively DB4-162 inhibits the growth of each bacterial strain in vitro.
(§8) IC50 values for ampicillin were calculated via broth microdilution in LB broth only. Values are listed as the mean followed by the 95% confidence interval about the mean. Mean and confidence intervals were calculated from a variable slope, nonlinear regression fit to the dose-response OD600 data. […]

+Bla K-12 E. coli = test: microbe, parasite or virus in culture; type: cell-based, Escherichia coli; settings: for IC50: Escherichia coli, +Bla K-12 E. coli
From the text: as §1, §2, §6, §7, §8

UTI89 E. coli = test: Broth microdilution growth inhibition (OD600); type: cell-based, Escherichia coli; settings: for IC50: Escherichia coli, UTI89 E. coli
From the text: as §1, §2, §6, §7, §8

[4] = tested on: Methicillin-Resistant Staphylococcus aureus (MRSA); test: microbe, parasite or virus in culture; type: cell-based; settings: for IC50: Staphylococcus aureus
From the text: as §1, §2, §6, §7, §8

[5] = tested on: Klebsiella pneumonia (Klebs); test: Broth microdilution growth inhibition (OD600); type: cell-based; settings: for IC50: Klebsiella pneumoniae
From the text: as §1, §2, §6, §7, §8

E. coli = type: cell-based; settings: high concentrations (>125 μM)
From the text: Further evidence for the influence of bioavailable copper on the IC50 of DB4-51 was obtained by using a checkerboard assay. […] Serial dilutions of DB4-51 in LB were arrayed against dilutions of chelator (BCS and EDTA). The antagonism exists between our prochelator, DB4-51, and the strong, extracellular chelators BCS and EDTA. […] However, at lower concentrations, EDTA works antagonistically with DB4-51 by restoring bacterial growth. This trend further underscores the influence that copper and potentially other metals have on the growth inhibitory activity of DB4-51.

[6] = Calcein fluorescence assay for Cu competition; type: physicochemical; settings: 2 μM calcein + 2.4 μM CuCl2, pH 7.4 PBS; 20 μM (10 equivalents) compound alone; 1 h
Experimental: FIG. 11: To solutions of 2 μM calcein in pH 7.4 PBS was added 2.4 μM CuCl2 and the samples were fully equilibrated at room temperature for 2 hours. Next, 20 μM TAT, 20 μM DB4-162, 0.1 units/mL β-lactamase were added and the fluorescence at 500 nm was recorded after one hour.
A calcein fluorescence assay for metal competition was utilized in order to evaluate the relative metal-binding affinity of DB4-51 compared to PT. The fluorescence intensity of the probe calcein is quenched by more than 90% upon binding Cu^2+. […] However, when incubated with 10 equivalents of DB4-51 and 0.1 units/mL Type III β-lactamase from Enterobacter cloacae, there is an 85% return in calcein fluorescence, which correlates well with the 90% return observed for PT itself at the same concentration.
FIG. 4: Relative Cu binding assay with DB4-51 and PT against calcein. Solutions of 2 μM calcein and 2.4 μM CuCl2 in pH 7.4 PBS were equilibrated at room temperature for 2 hours prior to addition of 20 μM PT, 20 μM DB4-51, and/or 0.1 units/mL β-lactamase (Bla).
The calcein assay was utilized in order to assess the relative copper chelating ability of the prochelator and TAT. The fluorescence emission of calcein is quenched by more than 90% in the presence of 1.2 equivalents of CuCl2 (FIG. 11). […] The addition of 0.1 units/mL β-lactamase alone has no effect on the quenched fluorescence signal of the Cu-calcein solution. […] However, when incubated with 10 equivalents of DB4-162 and 0.1 units/mL β-lactamase there is a 90% return in calcein fluorescence. […] While it is unclear why 10 equivalents of TAT are insufficient to out-compete calcein for copper, it may be related to the propensity of TAT to form other species in aqueous media.

pCOM E. coli = test: microbe, parasite or virus in culture; type: cell-based, Escherichia coli; settings: Escherichia coli, pCOM E. coli
From the text: as §1, §2, §6, §7, §8

ESBL E. coli = test: microbe, parasite or virus in culture; type: cell-based, Escherichia coli; settings: Escherichia coli, ESBL E. coli; LB broth
From the text: as §1, §2, §6, §7, §8

IC50 ([1]; Klebs Isolate 1): 0.4 µM
IC50 ([1]; Klebs Isolate 2): 0.7 µM
IC50 ([1]; Klebs Isolate 3): 2 µM
IC50 ([1]; Klebs Isolate 4): 1 µM
IC50 ([1]; Klebs Isolate 5): 0.1 µM
IC50 ([1]; Klebs Isolate 6): 0.3 µM
IC50 ([1]; Klebs Isolate 7): 0.3 µM
IC50 ([1]; Klebs Isolate 8): 0.1 µM
IC50 ([1]; Klebs Isolate 9): 73 µM
IC50 ([1]; Klebs Isolate 10): 0.03 µM
IC50 ([1]; Klebs Isolate 11): 0.01 µM
IC50 ([1]; Klebs Isolate 12): 0.1 µM
IC50 ([1]; Klebs Isolate 13): 1 µM
Structure (SMILES): CO/N=C(\C(=O)N[C@@H]1C(=O)N2C(C(=O)O)=C(CSc3nc(=O)c(=O)[nH]n3C)CS[C@H]12)c1csc(N)n1 [Ceftriaxone]

Structure (SMILES): CC1=C(C(=O)O)N2C(=O)[C@@H](NC(=O)[C@H](N)c3ccccc3)[C@H]2SC1 [Cephalexin]
IC50 [2]: 26 µM
IC50 [3]: 33 µM

Structure (SMILES): [Cl][Cu][Cl] [CuCl2]
increase of growth (−Bla K-12 E. coli; K-12 E. coli (−Bla), 10 μM supplemental CuCl2): 5-20%
increase of growth (+Bla K-12 E. coli; K-12 E. coli (+Bla), 10 μM supplemental CuCl2): 5-20%
reduction of growth (UTI89 E. coli; UTI89, concentrations up to 500 μM): less than 20%
reduction of growth ([4]; concentrations up to 500 μM): less than 20%
reduction of growth ([5]; concentrations up to 500 μM): less than 20%

Structure (SMILES): O=C(O)CN(CCN(CC(=O)O)CC(=O)O)CC(=O)O [EDTA, Ethylenediaminetetraacetic acid]
effect on bacterial growth (E. coli): some inhibition of bacterial growth

Structure (SMILES): Cc1csc(=S)n1O [TAT, 3-hydroxy-4-methyl-2(3H)-thiazolethione]
return in calcein fluorescence [6]: 30%
IC50 (−Bla K-12 E. coli; LB + 10 μM CuCl2): 36 µM
IC50 (−Bla K-12 E. coli; LB + 500 μM BCS): 70 µM
IC50 (−Bla K-12 E. coli; LB broth): 23 µM
IC50 (+Bla K-12 E. coli; LB + 10 μM CuCl2): 38 µM
IC50 (+Bla K-12 E. coli; LB + 500 μM BCS): 70 µM
IC50 (+Bla K-12 E. coli; LB broth): 36 µM
IC50 (pCOM E. coli; LB + 10 μM CuCl2): 7 µM
IC50 (pCOM E. coli; LB + 500 μM BCS): 28 µM
IC50 (pCOM E. coli; LB broth): 6 µM
IC50 (ESBL E. coli): 41 µM
IC50 (UTI89 E. coli; LB + 10 μM CuCl2): 9 µM
IC50 (UTI89 E. coli; LB + 500 μM BCS): 38 µM
IC50 (UTI89 E. coli; LB broth): 6 µM
IC50 ([4]; LB + 10 μM CuCl2): 10 µM
IC50 ([4]; LB + 500 μM BCS): 29 µM
IC50 ([4]; LB broth): 23 µM
IC50 ([5]; LB + 10 μM CuCl2): 26 µM
IC50 ([5]; LB + 500 μM BCS): 51 µM
IC50 ([5]; LB broth): 14 µM
